Experiment: solvent given as SMILES

CC(C)C(C)C(C)C
Details	solvation free energy, 298 K [kcal/mol]
in Brc1ccccc1	-4.64
in C1CCCCC1	-5.1
in C1CCOC1	-4.92
in C1COCCO1	-4.17
in C=CCCCC	-5
in C=CCCCCCC	-4.92
in C=CCCCCCCCC	-4.84
in CC1COC(=O)O1	-2.86
in CC#N	-3.46
in CC(=O)N(C)C	-3.7
in CC(=O)O	-3.77
in CC(=O)c1ccccc1	-3.96
in CC(C)=O	-4.14
in CC(C)CC(C)(C)C	-4.9
in CC(C)CCCC(C)CCCC(C)CCCCC(C)CCCC(C)CCCC(C)C	-4.48
in CC(C)CCO	-4.31
in CC(C)O	-4.09
in CC(C)OC(C)C	-4.9
in CCBr	-5.01
in CCC#N	-3.86
in CCC(C)=O	-4.39
in CCCC#N	-4.14
in CCCC(=O)OCC	-4.61
in CCCC(C)=O	-4.49
in CCCCC	-5.05
in CCCCCC	-5.03
in CCCCCC(C)=O	-4.51
in CCCCCCC	-4.98
in CCCCCCCC	-4.91
in CCCCCCCCC	-4.87
in CCCCCCCCCC	-4.84
in CCCCCCCCCCCC	-4.74
in CCCCCCCCCCCCCCCC	-4.66
in CCCCCCCCO	-4.33
in CCCCCCOC(C)=O	-4.59
in CCCCO	-4.23
in CCCCOC(C)=O	-4.56
in CCCCOCCCC	-4.88
in CCCO	-4.1
in CCN(CC)CC	-4.98
in CCO	-4.02
in CCOC(C)=O	-4.41
in CCOCC	-4.96
in CCOCCOCCOCC	-4.33
in CCOc1ccccc1	-4.42
in CN1CCCC1=O	-3.6
in CN(C)C=O	-3.53
in CN(C)P(=O)(N(C)C)N(C)C	-3.97
in CNC=O	-3.19
in CO	-3.64
in COC(C)=O	-4.22
in COCCO	-3.52
in COc1ccccc1	-4.35
in CS(C)=O	-2.63
in Cc1ccc(C)cc1	-4.85
in Cc1ccccc1	-4.85
in Cc1ccccn1	-4.45
in ClC(Cl)(Cl)Cl	-5.09
in ClC(Cl)Cl	-4.98
in ClCCCl	-4.4
in ClCCl	-4.74
in Clc1ccccc1	-4.84
in FC(F)(F)C(F)(F)C(F)(F)C(F)(F)C(F)(F)C(F)(F)C(F)(F)C(F)(F)F	-3.34
in FC(F)(F)C(F)(F)C(F)(F)C(F)(F)C(F)(F)C(F)(F)F	-3.4
in Fc1ccccc1	-4.75
in ICI	-2.94
in N#Cc1ccccc1	-4.01
in Nc1ccccc1	-3.27
in O	2.57
in O=C1CCCCC1	-4.32
in O=C1CCCO1	-3.01
in OCc1ccccc1	-3.52
in S=C=S	-5.06
in c1ccccc1	-4.83
in c1ccncc1	-4.17

CCc1cccnc1
Details	solvation free energy, 298 K [kcal/mol]
in O	-4.59

Reference: the CombiSolv-Exp solvation set (Vermeire and Green 2021)
